The values that follow come from US8481572B2, “Pharmaceutical compositions and methods for the treatment of cancer” (Urifer Ltd., priority 2007, dated 2013).

A word on the EC50: it is the concentration that produces a half-maximal response. Broadly, the IC50 is the concentration at which inhibition is half-maximal.

Each structure is given as a SMILES string. Read-outs that look alike come from different tables or passages of the source.

What all share (assay type): cell-based
In assay [1] the test system is HT29 human colorectal carcinoma cells. As to the kind of experiment: XTT test, number of viable cells, HT29. As to the method:
(§1) The effect of the four compounds 497, 631, 115 and 540 on the growth profile of cancer cells which express Fer was tested. The cells that were tested were: the colon cancer cell lines HT29 and HCT 116, the breast cancer cell lines MDA-MB-231 and MCF-7, and the prostate cancer cell lines PC3 and DU145. The effect of each of the four compounds on FS11 cells, a non malignant fibroblastic cell line, was also studied.
(§2) The cells were seeded in 96 wells microplates and were left to grow untreated overnight. Each of the […] compounds was dissolved in DMSO and was then added to each well in a dose dependent manner from 0.4 to 80 μM. The concentration of DMSO in each well was 0.4% v/v. Untreated cells and cells subjected to 0.4% DMSO alone, served as controls. The number of viable cells in each well was determined 48, 72, 96 hours after compounds addition, using the XTT test (Berridge, M. V. et al, 2005).
(§3) The effect of compound E626-0342 on the growth profile of cancer cells which express Fer was tested. The compound was added to the growth media of FS11-normal primary human fibroblasts and to two colon cancer cell lines, HCT116 and HT29, which express Fer.
(§4) Various cell lines were seeded in 96 wells microplates and were left to grow untreated overnight. Compound E626-0342, dissolved in DMSO at a stock concentration of 10 mM was then added to each well in a dose dependent manner, resulting in final concentrations extending from 0.5 to 15 μM. The final concentration of DMSO in each well was 1% v/v. Untreated cells and cells subjected to 1% DMSO alone, served as controls. The number of viable cells in each well was determined 96 hours after addition of the compound, using the XTT test (Berridge, M. V. et al, 2005).
In general terms: Tetrazolium assays rely on reduction of a dye to a coloured formazan, in cell work by metabolically active cells.

Assay [2] has as its system PC3 prostate cancer cell line. The experiment in a line: XTT test, number of viable cells, PC3. Conditions: concentrations tested up to 80 μM. As for the experimental part:
as §1, §2

Assay [3] concerns FS11 human fibroblastic cells. The experiment in a line: XTT test, number of viable cells, FS11 non-malignant fibroblasts. The note with it: for EC50: Homo sapiens, Fibroblast, XTT test, concentrations tested up to 80 μM. As for the experimental part:
as §1, §2, §3, §4

For assay [4], the system named is MDA-MB-231 breast cancer cell line. The experiment in a line: XTT test, number of viable cells, MDA-MB-231. Conditions: Homo sapiens, concentrations tested up to 80 μM. As for the experimental part: as §1, §2
A further assay addresses T1, murine Fer (Mus musculus, UniProt P70451).
T1 construct: expressed in transfected cells; host or cells: S. cerevisiae yeast cells harboring plasmid pAES-Fer
As to the kind of experiment: Fer tyrosine phosphorylation in yeast cells expressing ectopic Fer (western blot). Conditions: 40 μM for 48 h. As for the experimental part:
To examine whether the above listed compounds affect the enzymatic activity of Fer, the protein tyrosine phosphorylation profile in yeast cells which ectopically express the murine Fer, was analyzed using the yeast system disclosed in WO2007/107991. Since the S. cerevisae yeast cells lack almost completely detectable, endogenous, tyrosine phosphorylation activity, the detected tyrosine phosphorylation signals result essentially from the kinase activity of the ectopic Fer. Furthermore, considering the negligible tyrosine-phosphorylation background in the cells, it is possible to specifically track the tyrosine phosphorylation level of Fer in the treated yeast cells.
Yeast cells expressing an ectopic Fer were treated with 40 μM of one of the compounds 497, 631, 115 and 540 for 48 h. […] The expression levels of Fer and the tyrosine phosphorylation profiles of the proteins before and after treatment with the compounds were determined using a western-blot analysis. […]
To examine whether E626-0342 affects the enzymatic activity of Fer, the protein tyrosine phosphorylation profile in yeast cells which ectopically express the murine Fer, was analyzed. Since the S. cerevisae yeast cells lack almost completely detectable, endogenous, tyrosine phosphorylation activity, the detected tyrosine phosphorylation signals result essentially from the kinase activity of the ectopic Fer. […]
In general terms: A western blot detects proteins with antibodies after separation by electrophoresis.

Assay [5] has as its system HCT116 human colorectal carcinoma cells. The experiment in a line: XTT test, number of viable cells, HCT116. As for the experimental part:
as §1, §2, §3, §4

In assay [6] the test system is MCF-7 breast cancer cell line. The experiment in a line: XTT test, number of viable cells, MCF-7. The note with it: Homo sapiens, MCF7, concentrations tested up to 80 μM. As to the method:
as §1, §2

In assay [7] the test system is DU145 prostate cancer cell line. The experiment in a line: XTT test, number of viable cells, DU145. Conditions: Homo sapiens, DU-145, concentrations tested up to 80 μM. As to the method: as §1, §2
[8] abbreviates: HT-29, XTT test, concentrations tested up to 80 μM, read-out: EC50 on HT29.
Setting [9] is: HCT-116, XTT test, concentrations tested up to 80 μM, read-out: EC50 on HCT116.

T1 sequence (P70451 whole entry): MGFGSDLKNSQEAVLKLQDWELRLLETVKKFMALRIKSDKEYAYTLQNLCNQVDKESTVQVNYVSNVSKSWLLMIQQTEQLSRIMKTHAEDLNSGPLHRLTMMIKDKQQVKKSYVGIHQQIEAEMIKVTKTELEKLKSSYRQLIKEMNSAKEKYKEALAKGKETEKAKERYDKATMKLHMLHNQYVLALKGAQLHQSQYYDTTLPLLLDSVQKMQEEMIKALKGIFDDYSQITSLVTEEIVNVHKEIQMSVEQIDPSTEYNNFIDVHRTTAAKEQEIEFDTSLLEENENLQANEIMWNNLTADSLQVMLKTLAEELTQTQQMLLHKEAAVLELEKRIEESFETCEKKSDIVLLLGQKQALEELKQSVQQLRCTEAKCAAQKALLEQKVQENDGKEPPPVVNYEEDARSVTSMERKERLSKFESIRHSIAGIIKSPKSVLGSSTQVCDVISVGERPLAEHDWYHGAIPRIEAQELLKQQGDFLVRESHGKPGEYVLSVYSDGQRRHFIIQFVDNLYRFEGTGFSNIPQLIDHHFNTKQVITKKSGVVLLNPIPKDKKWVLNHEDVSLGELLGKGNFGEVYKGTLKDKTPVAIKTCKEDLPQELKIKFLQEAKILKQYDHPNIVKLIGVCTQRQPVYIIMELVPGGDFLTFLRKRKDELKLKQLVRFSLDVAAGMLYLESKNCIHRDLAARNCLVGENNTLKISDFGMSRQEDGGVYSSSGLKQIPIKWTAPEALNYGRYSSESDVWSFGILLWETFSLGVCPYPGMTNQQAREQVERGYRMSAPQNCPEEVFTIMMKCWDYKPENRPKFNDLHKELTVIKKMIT

Consider `CC(C)c1nn2cc(-c3ccc(F)cc3)nc2s1` [Compound 631], for which the EC50 in assay [1] (HT-29, 0.4% DMSO, 0.4 to 80 μM, read-out: EC50, decrease in cell viability, HT29) worked out at 40 µM; in assay [1] (setting [8]) it was 30 µM; in assay [2], 32 µM; in assay [4], 32 µM; in assay [5] (HCT-116, 0.4% DMSO, 0.4 to 80 μM, read-out: EC50, decrease in cell viability, HCT116), 24 µM; in assay [5] (setting [9]), 24 µM. Also, in assay [3] (up to a concentration of 80 μM), the “effect on FS11 cells” value is given as “did not affect”. Moreover, the “tyrosine phosphorylation level of the Fer protein band (Fer autophosphorylation)” value at murine Fer is “significant reduction”.
Regarding `Cc1ccn2cc(-c3ccc(F)cc3)cc2c1` [Compound 115], the EC50 in assay [6] is 8 µM; in assay [1] (setting [8]) it was 32 µM; in assay [3], more than 80 µM; in assay [4], 40 µM; in assay [5] (setting [9]), 32 µM.
In the case of `Nc1cc(-c2ccc(Cl)cc2)nn1S(=O)(=O)c1c(F)c(F)c(F)c(F)c1F` [Compound 497], the half-maximal effective concentration (EC50) in assay [7] was determined as 8 µM; in assay [6], 8 µM; in assay [1] (setting [8]), 2 µM; in assay [2] it was 4 µM; in assay [3], 4 µM; in assay [4], 2 µM. For the same compound, the EC50 in assay [5] (setting [9]) worked out at 2 µM. In addition, the IC50 in assay [1] (HT-29, after 96 h, read-out: IC50, reduction in number of viable cells, HT29) worked out at 2 µM; in assay [5] (HCT-116, after 96 h, read-out: IC50, reduction in number of viable cells, HCT116) it was 2 µM. For the same compound, on murine Fer, the “tyrosine phosphorylation level of the Fer protein band (Fer autophosphorylation)” value is on record as “significant reduction”.
